Results on five molecules are retold here after US20210369853A1, “TARGETED PROTEASE DEGRADATION PLATFORM” (EUBULUS BIOTHERAPEUTICS INC., priority 2018, published 2021).

What all share (assay type): cell-based
In assay [1] the test system is HUVEC. The assay can be described thus: Cell proliferation experiment (EC50), HUVEC. To be noted: Homo sapiens.
The test system of assay [2] is Human Colon Cancer HCT-116. The assay can be described thus: Cell proliferation experiment (Alarm blue, 72 h, EC50). To be noted: Homo sapiens, HCT-116; HCT116 cells. In short, it runs like this: (§1)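 Alamar blue fluorescence after 72 h compound exposure; 5-fold serial dilutions, duplicate wells per concentration; EC50 from four-parameter logistic fit.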
Assay [3] deals with Human Monocytic Leukemia MV4-11. Described as above. To be noted: Homo sapiens, MV4-11, MV4;11 cells. In short, it runs like this:
as §1

Assay [4] deals with Human Acute Myelomonocytic Leukemia HL-60. The description is as above. To be noted: HL-60 cells. In short, it runs like this:
as §1

For assay [5], the system named is PBMC. The assay can be described thus: Cell proliferation experiment (EC50), PBMC.
For the next assay, the system named is Human Colon Cancer HT-29. The assay can be described thus: Cell proliferation experiment (Alarm blue, 72 h, EC50). To be noted: Homo sapiens; HT-29 cells. In short, it runs like this: as §1
In assay [6] the test system is Human Small Cell Lung Cancer NCI-H82. Described as above. To be noted: Homo sapiens, NCI-H82; NCIH82 cells. The procedure, abridged:
as §1

Assay [7] deals with Human Glioma Cells U-87 MG. The assay is described as above. To be noted: Homo sapiens; U-87MG cells. In short, it runs like this: as §1
Assay [8] relates to Daudi. The assay can be described thus: Cell proliferation experiment (EC50), Daudi. Particulars: Homo sapiens; Daudi cells.
In assay [9] the test system is PBMC. The assay can be described thus: Cell proliferation experiment (EC50), PBMC. The source holds these as a separate data set.
For the next assay, the target named is T1, BRD4 (Homo sapiens, UniProt O60885).
T1 construct: endogenous in cells
The assay can be described thus: Western blot, protein degradation (DC50). The procedure, abridged: (§2)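 Protein loss read by ECL Western blot after compound treatment of cells; RIPA lysates run on 4%-12% SDS-PAGE, transferred to PVDF, primary antibody overnight at 4° C. Degradation derived from quantified band intensities.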
On the technique in general: Immunoblotting shows a protein as a band on a membrane.

The target of another assay is T2, PLK1 (Homo sapiens, UniProt P53350).
T2 construct: endogenous in cells
T2 sequence (P53350 whole entry): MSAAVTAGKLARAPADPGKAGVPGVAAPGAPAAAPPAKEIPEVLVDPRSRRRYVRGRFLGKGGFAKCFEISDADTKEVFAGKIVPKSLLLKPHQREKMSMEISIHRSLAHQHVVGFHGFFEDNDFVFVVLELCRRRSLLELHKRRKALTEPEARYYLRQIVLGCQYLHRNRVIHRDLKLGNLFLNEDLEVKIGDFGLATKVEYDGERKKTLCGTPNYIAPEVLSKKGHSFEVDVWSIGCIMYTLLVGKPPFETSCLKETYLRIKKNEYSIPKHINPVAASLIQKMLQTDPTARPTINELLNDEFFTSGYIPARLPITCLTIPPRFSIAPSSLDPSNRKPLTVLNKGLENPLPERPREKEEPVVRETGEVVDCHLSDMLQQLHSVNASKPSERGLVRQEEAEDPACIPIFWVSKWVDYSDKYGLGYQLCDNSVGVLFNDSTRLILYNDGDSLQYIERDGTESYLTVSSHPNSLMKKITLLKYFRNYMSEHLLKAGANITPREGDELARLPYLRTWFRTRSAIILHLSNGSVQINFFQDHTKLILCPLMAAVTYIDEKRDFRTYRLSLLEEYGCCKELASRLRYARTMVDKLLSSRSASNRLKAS
The assay can be described thus: Western blot, protein degradation (DC50). In short, it runs like this:
as §2

Assay [10] deals with HUVEC. The assay can be described thus: Cell proliferation experiment (EC50), HUVEC. Particulars: Homo sapiens. The source holds these as a separate data set.
Assay [11] relates to Human Ovarian Cancer SK-OV-3. The assay can be described thus: Cell proliferation experiment (Alarm blue, 72 h, EC50). Particulars: Homo sapiens, SK-OV-3; SKO3 cells. In short, it runs like this: as §1
The test system of assay [12] is Human Monocytic Leukemia THP-1. Described as above. Particulars: THP-1 cells. In short, it runs like this:
as §1

Assay [13] relates to Human Breast Cancer MDA-MB-231. The description is as above. To be noted: Homo sapiens; MDA-MB-231 cells. The procedure, abridged:
as §1

Assay [14] relates to Human cervical adenocarcinoma cells Hela. The description is as above. Particulars: Homo sapiens. The procedure, abridged: as §1
The next assay deals with A549. The assay can be described thus: Cell proliferation experiment (EC50), A549. Particulars: Homo sapiens; A549 cells.
Another assay has as its system U937. The assay can be described thus: Cell proliferation experiment (EC50), U937. To be noted: Homo sapiens, U-937; U937 cells.
Assay [15] concerns Daudi. The assay can be described thus: Cell proliferation experiment (EC50), Daudi. To be noted: Homo sapiens; Daudi cells. The source holds these as a separate data set.
[16] abbreviates: 6 h, read-out: BRD4 DC50 (nM) (6 h).
[17] abbreviates: 24 h, read-out: BRD4 DC50 (nM) (24 h).
Where [18] appears, read: 6 h, read-out: PLK1 DC50 (nM) (6 h).
Where [19] appears, read: 24 h, read-out: PLK1 DC50 (nM) (24 h).

Where two headings read alike, the source gives them in different places.

On to `O=C1CCC(N2Cc3c(NC(=O)CCOCCOCCOCCNC(=O)c4ccc(Nc5ncc6c(n5)-c5ccc(Cl)cc5C(c5c(F)cccc5F)=NC6)cc4)cccc3C2=O)C(=O)N1` (stereo not shown) [UB-180535], for which the EC50 (in general, the midpoint of the concentration-response curve) is > 1000 nM with HUVEC [1]; > 1000 nM in [2]; 10 to 100 nM in [3]; > 1000 nM in assay [4]; > 1000 nM with PBMC [5].

As for `CC[C@@H]1C(=O)N(C)c2cnc(Nc3ccc(C(=O)NCCOCCOCCOCCC(=O)Nc4cccc5c4CN(C4CCC(=O)NC4=O)C5=O)cc3OC)nc2N1C1CCCC1` (stereo partly shown) [UB-180605], the EC50 with Human Colon Cancer HT-29 was 100 to 1000 nM; in assay [6], 100 to 1000 nM; in assay [3], 10 to 100 nM; in assay [7], 100 to 1000 nM; in the assay with Daudi [8] it was 100 to 1000 nM.

For the molecule `CC[C@@H]1C(=O)N(C)c2cnc(Nc3ccc(C(=O)NCc4cn(CCNCCC(=O)Nc5cccc6c5CN(C5CCC(=O)NC5=O)C6=O)nn4)cc3OC)nc2N1Cc1ccc(Cl)s1` (stereo partly shown) [UB-180714], the EC50 was 10 to 100 nM in assay [3], 100 to 1000 nM in the assay with PBMC [9] and 100 to 1000 nM with HUVEC [10]. The DC50 (commonly the midpoint of the concentration-degradation curve) was < 10 nM at BRD4 (setting [16]), < 10 nM on BRD4 (setting [17]), 10 to 100 nM at PLK1 (setting [18]) and < 10 nM at PLK1 (setting [19]).

For `CC[C@@H]1C(=O)N(C)c2cnc(Nc3ccc(C(=O)NC4CCN(CCOCCNCC(=O)Nc5cccc6c5CN(C5CCC(=O)NC5=O)C6=O)CC4)cc3OC)nc2N1Cc1ccc(Cl)s1` (stereo partly shown) [UB-180725], the EC50 fell in the range of 100 to 1000 nM in assay [2]; 100 to 1000 nM with Human Colon Cancer HT-29; 100 to 1000 nM in assay [11]; 100 to 1000 nM in assay [6]; 10 to 100 nM in assay [3]; 100 to 1000 nM in assay [12]. Moreover, the EC50 (in assay [13]; in assay [4]; in assay [14]; in assay [7]; in the assay with A549; in the assay with U937) was 100 to 1000 nM throughout. The EC50 with Daudi [15] fell in the range of 100 to 1000 nM. Moreover, the DC50 at BRD4 (setting [16]), on BRD4 (setting [17]), on PLK1 (setting [18]) and on PLK1 (setting [19]) was < 10 nM in each case.

In the case of `O=C1CCC(N2Cc3c(NC(=O)CNCCOCCOCCOCCNC(=O)[C@]4(Cc5cccc(Nc6nccs6)n5)CC[C@@H](Oc5cccc(Cl)c5F)CC4)cccc3C2=O)C(=O)N1` (stereo partly shown) [UB-180730], the EC50 is 100 to 1000 nM in assay [2]; 10 to 100 nM in assay [3]; > 1000 nM in assay [4]; > 1000 nM in the assay on PBMC [9]; > 1000 nM in the assay with HUVEC [10]. The DC50 on PLK1 (setting [18]) was < 10 nM.
